Measurements: patent publication US20260199323A1, “LIGAND COMPOUNDS FOR E3 UBIQUITIN LIGASE, PROTEIN DEGRADERS DEVELOPED ON BASIS OF LIGAND COMPOUNDS, AND USES THEREOF” (GLUETACS THERAPEUTICS (SHANGHAI) CO., LTD., priority 2021, published 2026)
Read-outs that look alike come from different tables or passages of the source.

Key:
HCC827 = assay: CCK-8 tumor cell proliferation, HCC827; format: cell-based, Human; conditions: for IC50: Homo sapiens
SR = assay: CCK-8 tumor cell proliferation, SR; format: cell-based, Human; conditions: Homo sapiens; Table 15, ALK inhibitor based; SR; read-out: IC50 inhibiting proliferation of tumor cells, SR
In short: (§1)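 IC50 derived from CCK-8 cell viability after compound treatment. Dilution series: 10 concentrations, 5-fold apart, from 10 μM. Compound added 24 h post-seeding; culture at 37 °C in 5% CO2.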

PC-9 = assay: CCK-8 tumor cell proliferation, PC-9; format: cell-based, Human; conditions: Homo sapiens
NCI-H2228 = assay: CCK-8 tumor cell proliferation, NCI-H2228; conditions: Homo sapiens, Table 15, ALK inhibitor based, read-out: IC50 inhibiting proliferation of tumor cells, NCI-H2228
Procedure: (§2) The tumor cells used herein were cultured in a cell culture medium listed in table 4 at 37° C. in an incubator with 5% CO2. Prior to experimentation, all cells used were correctly identified by STR profiling, and tested negative for mycoplasma through routine screenings.
(§3) IC50 values of the compounds of the present disclosure (including the compounds in Tables 1 and 3, and compounds of examples) were measured using the Meilun Cell Counting Kit-8 kit from Dalian Meilun Biotech Co., Ltd. Assay details are as follows: tumor cells were seeded in a 96-well plate at a density listed in Table 5. After 24 h, 100 μL of the inoculated cells were treated with 0.5 μL of the compounds of the present disclosure (including the compounds in Tables 1 and 3, and compounds of examples) at 10 different successively decreasing concentrations (starting at the highest concentration of 10 μM; 5-fold serial dilutions). After the cells were treated with the compounds of the present disclosure for a period of time, the cell viability detection reagent was added to the culture medium for cell viability assessment according to the instructions provided with the CCK-8 kit. […] The growth inhibition of the compounds of the present disclosure on cells was plotted by Prism Graphpad software, and the IC50 values of the compounds of the present disclosure were calculated therefrom.

MDA-MB-231 = assay: CCK-8 tumor cell proliferation, MDA-MB-231; format: cell-based, Human; parameters: IC50 for inhibiting the proliferation of tumor cells, MDA-MB-231: scale not given here; conditions: for IC50: Homo sapiens, Table 15, ALK inhibitor based, MDA-MB-231, read-out: IC50 inhibiting proliferation of tumor cells, MDA-MB-231
In short: as §1

THP-1 = assay: CCK-8 tumor cell proliferation, THP-1; format: cell-based, Human; conditions: Table 7, designed based on BTK inhibitors; 72 h
Procedure: as §2, §3

MM.1S = assay: CCK-8 tumor cell proliferation, MM.1S; format: cell-based; conditions: Table 8, designed based on ER inhibitors; 72 h
In short: as §1

Mino = assay: CCK-8 tumor cell proliferation, Mino; format: cell-based, Human; conditions: for IC50: Homo sapiens, Table 15, ALK inhibitor based, Mino, read-out: IC50 inhibiting proliferation of tumor cells, Mino
In short: as §1

SU-DHL-6 = assay: CCK-8 tumor cell proliferation, SU-DHL-6; format: cell-based, Human; conditions: Table 8, designed based on ER inhibitors; 72 h
Procedure: as §2, §3

Kasumi-1 = assay: CCK-8 tumor cell proliferation, Kasumi-1; format: cell-based, Human; conditions: Table 8, designed based on ER inhibitors; 72 h
In short: as §1

T47D = assay: CCK-8 tumor cell proliferation, T47D; format: cell-based, Human; conditions: Table 8, designed based on ER inhibitors; 96 h
Procedure: as §2, §3

SW620 = assay: CCK-8 tumor cell proliferation, SW620; format: cell-based, Human; conditions: Table 8, designed based on ER inhibitors; 96 h
In short: as §1

CCRF-CEM = assay: CCK-8 tumor cell proliferation, CCRF-CEM; format: cell-based, Human; parameters: IC50 for inhibiting the proliferation of tumor cells, CCRF-CEM: scale not given here; conditions: Table 8, designed based on ER inhibitors; 96 h
In short: as §1

Hep3B2.7-1 = assay: CCK-8 tumor cell proliferation, Hep3B2.7-1; format: cell-based, Human; conditions: Table 8, designed based on ER inhibitors; 96 h
In short: as §1

NCI-H1975 = assay: CCK-8 tumor cell proliferation, NCI-H1975; format: cell-based, Human; conditions: Homo sapiens; Table 15, ALK inhibitor based; NCI-H1975; read-out: IC50 inhibiting proliferation of tumor cells, NCI-H1975
Procedure: as §2, §3

MV-4-11 = assay: CCK-8 tumor cell proliferation, MV-4-11; format: cell-based, Human; conditions: Homo sapiens, MV4-11; Table 15, ALK inhibitor based; MV-4-11; read-out: IC50 inhibiting proliferation of tumor cells, MV-4-11
In short: as §1

[1] = Table 15, ALK inhibitor based, PC-9, read-out: IC50 inhibiting proliferation of tumor cells, PC-9
[2] = Table 8, designed based on ER inhibitors, 96 h

For `CCc1cc2c(cc1N1CCN(Cc3ccc4c(c3)CN(C3CCC(=O)NC3=O)C4=O)CC1)C(C)(C)c1[nH]c3cc(C#N)ccc3c1C2=O` (stereo not shown) [GT-03409, 8-(4-((2-(2,6-dioxopiperidin-3-yl)-1-oxoisoindolin-5-yl)methyl)piperazin-1-yl)-9-ethyl-6,6-dimethyl-11-oxo-6,11-dihydro-5H-benzo[b]carbazole-3-carbonitrile], the IC50 (HCC827; Table 15, ALK inhibitor based, HCC827, read-out: IC50 inhibiting proliferation of tumor cells, HCC827) was 1000 to 5000 nM, the IC50 (SR) was < 50 nM and the IC50 (PC-9; [1]) was 1000 to 5000 nM. For the same molecule, the IC50 (NCI-H2228) was 1000 to 5000 nM and the IC50 (MDA-MB-231) was 1000 to 5000 nM.

`NC(=O)c1ccc(N2CCN(Cc3ccc4c(c3)CN(C3CCC(=O)NC3=O)C4=O)CC2)nc1-c1ccc(Oc2ccccc2)cc1` (stereo not shown) [GT-03636, 6-(4-((2-(2,6-dioxopiperidin-3-yl)-1-oxoisoindolin-5-yl)methyl)piperazin-1-yl)-2-(4-phenoxyphenyl)nicotinamide] was tested, and the “IC50 for inhibiting the proliferation of tumor cells, THP-1” value (THP-1) was “A+”.

For `O=C1CCC(N2Cc3cc(CN4CCN(c5ccc(C(=C(CCCl)c6ccc(O)cc6)c6ccc(O)cc6)cc5)CC4)ccc3C2=O)C(=O)N1` (stereo not shown) [GT-03638, 3-(5-((4-(4-(4-chloro-1,2-bis(4-hydroxyphenyl)but-1-en-1-yl)phenyl)piperazin-1-yl)methyl)-1-oxoisoindolin-2-yl)piperidine-2,6-dione], the “IC50 for inhibiting the proliferation of tumor cells, MM.1S” value (MM.1S) was “A+”, the “IC50 for inhibiting the proliferation of tumor cells, HCC827” value (HCC827; [2]) was “A+” and the “IC50 for inhibiting the proliferation of tumor cells, Mino” value (Mino; Table 8, designed based on ER inhibitors, 72 h) was “A+”. For the same molecule, the “IC50 for inhibiting the proliferation of tumor cells, SU-DHL-6” value (SU-DHL-6) was “A+”, the “IC50 for inhibiting the proliferation of tumor cells, Kasumi-1” value (Kasumi-1) was “A+” and the “IC50 for inhibiting the proliferation of tumor cells, T47D” value (T47D) was “A+”. The “IC50 for inhibiting the proliferation of tumor cells, SW620” value (SW620) was “A+”, the “IC50 for inhibiting the proliferation of tumor cells, CCRF-CEM” value (CCRF-CEM) was “A+” and the “IC50 for inhibiting the proliferation of tumor cells, Hep3B2.7-1” value (Hep3B2.7-1) was “A+”. The “IC50 for inhibiting the proliferation of tumor cells, MDA-MB-231” value (MDA-MB-231; [2]) was “A+”.

With `CCc1cc2c(cc1N1CCC(N3CCN(Cc4cc(F)c5c(c4)CN(C4CCC(=O)NC4=O)C5=O)CC3)CC1)C(C)(C)c1[nH]c3cc(C#N)ccc3c1C2=O` (stereo not shown) [GT-03760, 8-(4-(4-((2-(2,6-dioxopiperidin-3-yl)-7-fluoro-1-oxoisoindolin-5-yl)methyl)piperazin-1-yl)piperidin-1-yl)-9-ethyl-6,6-dimethyl-11-oxo-6,11-dihydro-5H-benzo[b]carbazole-3-carbonitrile] the IC50 (NCI-H1975) was 50 to 100 nM, the IC50 (MV-4-11) was 500 to 1000 nM and the IC50 (SR) was < 50 nM. It also gave an IC50 (NCI-H2228) of 100 to 500 nM and an IC50 (Mino) of 100 to 500 nM.

For `CCc1cc2c(cc1N1CCC(N3CCOCC3)CC1)C(C)(C)c1[nH]c3cc(C#N)ccc3c1C2=O` [alectinib, reference compound], the IC50 (NCI-H1975) was 1000 to 5000 nM, the IC50 (SR) was < 50 nM and the IC50 (PC-9; [1]) was 100 to 500 nM. The IC50 (NCI-H2228) was 1000 to 5000 nM, the IC50 (Mino) was 5000 to 10000 nM and the IC50 (MDA-MB-231) was 1000 to 5000 nM.

With `COc1cc(N2CCC(N3CCN(C)CC3)CC2)ccc1Nc1ncc(Cl)c(Nc2ccccc2P(C)(C)=O)n1` [brigatinib, reference compound] the IC50 (NCI-H1975) was 500 to 1000 nM, the IC50 (HCC827; HCC827, read-out: IC50 inhibiting proliferation of tumor cells, HCC827) was 100 to 500 nM and the IC50 (SR) was < 50 nM. The IC50 (PC-9; PC-9, read-out: IC50 inhibiting proliferation of tumor cells, PC-9) was 1000 to 5000 nM, the IC50 (NCI-H2228) was 100 to 500 nM and the IC50 (Mino) was 5000 to 10000 nM. For the same molecule, the IC50 (MDA-MB-231) was 500 to 1000 nM.
